In one data set the test system is Jun. The experiment in a line: Transcriptional inhibition assay, Ga14 DBD-Jun TAD luciferase reporter in HeLa cells. Type of data set: cell-based. Particulars: in words. The protocol: Cells were transfected with Firefly (500 ng/mL) and Renilla luciferase (10 ng/mL) plasmids in addition to plasmids encoding the DBD of Ga14 fused to the minimal activation domains of either MLL (250 ng/mL), Jun (100 ng/mL), or ESX (500 ng/mL, 0.1 mL of total transfection solution). Four hours post-transfection cells were treated with increasing concentration of 1b (0→50 μM) as a solution in DMSO such that the final DMSO concentration was 1% (v/v). Percent inhibition is the ratio of fold activation of Jun at each concentration of compound and the fold activation of Jun in a DMSO-treated control. Each bar represents at least three independent experiments with the indicated error (SDOM). For each concentration level of 1b shown in FIG. 5a, the first data column from the left is Jun, the middle column is MLL, and the third column is ESX. (b) MCF-7 cells were treated with 40 μM 1b (as a solution in DMSO such that the final concentration of DMSO was 1% v/v) for 24 h, at which time the cells were lysed and the lysates separated by SDS-PAGE. Western blots were performed using commercial antibodies against GAPDH, Jun, and cyclin D1.
(b) Analogs of 1b tested for MLL and Jun inhibition. (c) Inhibition of Jun with isoxazolidine analogs Inhibition assays were carried out as described in FIG. 5a (SEQ ID NOs:1-4). For each concentration level shown in FIG. 6c, the compound data is shown (from the left) in the following order: 3, 4, 5, 6, 7, 8 and 9.
HeLa cells (10,000 per well) were transfected with a Firefly luciferase reporter (500 ng/mL), and Renilla (10 ng/mL) control plasmid in addition to a plasmid encoding for either the MLL (250 ng/mL) or Jun (100 ng/mL) activation domain fused to the DNA-binding domain of Ga14 in 0.1 mL Optimem. The Optimem was removed and 0.1 mL of DMEM supplemented with 10% FBS and compound was added four hours post-transfection and the luminescence was assessed after 24 h as described above.

A further data set relates to MCF-7 cells. Briefly: Cell viability assay (WST-1). Type of data set: cell-based. To be noted: at concentrations ≧50 μM (so in the source). The method, then: Viability data was acquired after 24 h using a cell-permeable metabolic dye, WST-1 (Roche). Viability data was normalized based on cell viability in the presence of 1% DMSO.
MCF-7 cells (American Tissue Culture Collection) were seeded at 5000 cells per well in a 96 well plate in RPMI media supplemented with 10% fetal bovine serum and allowed to adhere (37° C. and 5% CO2) overnight. Cells were incubated with 1b in DMSO or DMSO alone to a final DMSO concentration of 1% (v/v) for 24 hrs. WST-1 (Roche) was subsequently added to wells and the 96 well plate was incubated for 1 h at 37° C. Absorbance at 440 nm was read on a Tecan GENios Pro plate reader following 1 minute of orbital shaking. Data was corrected for wells containing media+WST-1 without cells. Each value is the average of at least three wells with the indicated error (SDOM).

The next data set deals with T1, KIX domain of CBP (Mus musculus, UniProt P45481).
T1 construct: the KIX domain, an 87-residue module whose solution structure has been elucidated; made in house
T1 sequence (P45481 586-665 limits assumed): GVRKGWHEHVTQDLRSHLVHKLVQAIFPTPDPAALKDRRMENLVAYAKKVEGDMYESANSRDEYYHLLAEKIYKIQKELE
Briefly: 1H-15N-HSQC binding analysis. Particulars: 200 μM 15N-His6KIX, 5 eq. compound. The protocol: The amide chemical shifts that change upon addition of 4 were quantitated were quantified using the equation: Δδ=[Δδ(^1H)^2+0.1Δδ(^15N)^2]^1/2, FIG. 7B bottom.
Uniformly labeled His6KIX protein was expressed and purified as previously described and stored as a lyophilized powder (see, e.g., Buhrlage, 2009). A 200 μM solution of His6KIX was prepared by dissolving the lyophilized protein, in a 9:1 H2O:D2O 10 mM PBS buffer containing 150 mM NaCl at pH 7.2. ^1H-^15N HSQC experiments were recorded at 27° C. on an Avance Bruker 600 MHz NMR spectrometer equipped with a 5 mm cryogenic probe. An HSQC was collected in the absence of isoxazolidine 4 and compared with data recorded in the presence of 5 eq. (1 mM) of 4. Data was processed using NMRPIPE. Chemical shift assignments were based on previously reported data′ and chemical shift analyses with Sparky software were quantified (Δδ=[Δδ(^1H)^2+0.1Δδ(^15N)^2]^1/2).

“Also recorded” adds a separate entry of the source.

The values below come from patent US20150025045A1, “CBP AND p300-MEDIATED TRANSCRIPTION MODULATORS AND RELATED METHODS” (THE OHIO STATE UNIVERSITY, priority 2011, published 2015).

With `CCCN1O[C@@H](CN=[N+]=[N-])C[C@@]1(CCO)CC(C)C` (racemic) [isoxazolidine 9], the “effect on Jun-driven transcription” value in the data set with Jun is listed as “little activity”.
For `CC(C)C[C@]1(CCO)C[C@H](CN=[N+]=[N-])ON1Cc1ccc(O)cc1` (racemic) [isoxazolidine 4], the toxicity entry in the data set on MCF-7 cells is listed as “no measurable toxicity”. Moreover, in the data set on Jun, the “effect on Jun-driven transcription” value is given as “little activity”. The “KIX binding by 1H-15N-HSQC” value at KIX domain of CBP is “did not negatively impact KLX binding”.
Turning to `CC(C)C[C@]1(CCO)C[C@H](CN=[N+]=[N-])ON1Cc1ccc(F)cc1` (racemic) [isoxazolidine 6], in the data set with Jun, the “effect on Jun-driven transcription” value is “dose-dependent manner; also recorded: enhanced potency”.
Same read-out and setting: the same measure for `CC(C)CCN1O[C@@H](CN=[N+]=[N-])C[C@@]1(CCO)CC(C)C` (racemic) [isoxazolidine 7]: “dose-dependent manner; also recorded: enhanced potency”; for `CC(C)CN1O[C@@H](CN=[N+]=[N-])C[C@@]1(CCO)CC(C)C` (racemic) [isoxazolidine 8]: “little activity”.
